According to ChEMBL document CHEMBL1201861, “Genomics of Drug Sensitity in Cancer screening data, Wellcome Trust Sanger Institute”:

Tests used:
HSC-3 = assay: cells; format: functional, cell-based; conditions: Homo sapiens
Description: SANGER: Inhibition of human HSC-3 cell growth in a cell viability assay.

G-401 = assay: cells; format: functional, cell-based; conditions: Homo sapiens
Description: SANGER: Inhibition of human G-401 cell growth in a cell viability assay.

NCI-H719 = assay: cells; format: functional, cell-based; conditions: Homo sapiens
Description: SANGER: Inhibition of human NCI-H719 cell growth in a cell viability assay.

BFTC-905 = assay: cells; format: functional, cell-based; conditions: Homo sapiens
Description: SANGER: Inhibition of human BFTC-905 cell growth in a cell viability assay.

NCI-H64 = assay: cells; format: functional, cell-based; conditions: Homo sapiens
Description: SANGER: Inhibition of human NCI-H64 cell growth in a cell viability assay.

LCLC-103H cell line = assay: cells; format: functional, cell-based; conditions: Homo sapiens
Description: SANGER: Inhibition of human LCLC-103H cell growth in a cell viability assay.

HuO9 = assay: cells; format: functional, cell-based; conditions: Homo sapiens
Description: SANGER: Inhibition of human HuO9 cell growth in a cell viability assay.

NB12 = assay: cells; format: functional, cell-based; conditions: Homo sapiens
Description: SANGER: Inhibition of human NB12 cell growth in a cell viability assay.

EHEB = assay: cells; format: functional, cell-based; conditions: Homo sapiens
Description: SANGER: Inhibition of human EHEB cell growth in a cell viability assay.

M059J = assay: cells; format: functional, cell-based; conditions: Homo sapiens
Description: SANGER: Inhibition of human M059J cell growth in a cell viability assay.

BC1 cell line = assay: SANGER: Inhibition of human BC-1 cell growth in a cell viability assay.; format: functional, cell-based
BHT-101 = assay: cells; format: functional, cell-based; conditions: Homo sapiens
Description: SANGER: Inhibition of human BHT-101 cell growth in a cell viability assay.

HCC1806 = assay: cells; format: functional, cell-based; conditions: Homo sapiens
Description: SANGER: Inhibition of human HCC1806 cell growth in a cell viability assay.

BCPAP = assay: cells; format: functional, cell-based; conditions: Homo sapiens
Description: SANGER: Inhibition of human BCPAP cell growth in a cell viability assay.

SCC-3 = assay: cells; format: functional, cell-based; conditions: Homo sapiens
Description: SANGER: Inhibition of human SCC-3 cell growth in a cell viability assay.

GAMG = assay: cells; format: functional, cell-based; conditions: Homo sapiens
Description: SANGER: Inhibition of human GAMG cell growth in a cell viability assay.

J82 = assay: cells; format: functional, cell-based; conditions: Homo sapiens
Description: SANGER: Inhibition of human J82 cell growth in a cell viability assay.

COLO-792 = assay: cells; format: functional, cell-based; conditions: Homo sapiens
Description: SANGER: Inhibition of human COLO-792 cell growth in a cell viability assay.

HN = assay: cells; format: functional, cell-based; conditions: Homo sapiens
Description: SANGER: Inhibition of human HN cell growth in a cell viability assay.

RPMI 8402 = assay: SANGER: Inhibition of human RPMI-8402 cell growth in a cell viability assay.; format: functional, cell-based
TUR = assay: cells; format: functional, cell-based; conditions: Homo sapiens
Description: SANGER: Inhibition of human TUR cell growth in a cell viability assay.

THP-1 = assay: cells; format: functional, cell-based; conditions: Homo sapiens
Description: SANGER: Inhibition of human THP-1 cell growth in a cell viability assay.

GP5d = assay: cells; format: functional, cell-based; conditions: Homo sapiens
Description: SANGER: Inhibition of human GP5d cell growth in a cell viability assay.

SW626 = assay: cells; format: functional, cell-based; conditions: Homo sapiens
Description: SANGER: Inhibition of human SW626 cell growth in a cell viability assay.

RMG-I = assay: cells; format: functional, cell-based; conditions: Homo sapiens
Description: SANGER: Inhibition of human RMG-I cell growth in a cell viability assay.

NCI-H460 = assay: cells; format: functional, cell-based; conditions: Homo sapiens
Description: SANGER: Inhibition of human NCI-H460 cell growth in a cell viability assay.

LP-1 = assay: cells; format: functional, cell-based; conditions: Homo sapiens
Description: SANGER: Inhibition of human LP-1 cell growth in a cell viability assay.

DG-75 = assay: cells; format: functional, cell-based; conditions: Homo sapiens
Description: SANGER: Inhibition of human DG-75 cell growth in a cell viability assay.

SK-LU-1 = assay: cells; format: functional, cell-based; conditions: Homo sapiens
Description: SANGER: Inhibition of human SK-LU-1 cell growth in a cell viability assay.

EGI-1 = assay: cells; format: functional, cell-based; conditions: Homo sapiens
Description: SANGER: Inhibition of human EGI-1 cell growth in a cell viability assay.

RL = assay: cells; format: functional, cell-based; conditions: Homo sapiens
Description: SANGER: Inhibition of human RL cell growth in a cell viability assay.

A204 = assay: cells; format: functional, cell-based; conditions: Homo sapiens
Description: SANGER: Inhibition of human A204 cell growth in a cell viability assay.

SW-620 = assay: cells; format: functional, cell-based; conditions: Homo sapiens
Description: SANGER: Inhibition of human SW620 cell growth in a cell viability assay.

CAMA-1 = assay: cells; format: functional, cell-based; conditions: Homo sapiens
Description: SANGER: Inhibition of human CAMA-1 cell growth in a cell viability assay.

WM-115 = assay: cells; format: functional, cell-based; conditions: Homo sapiens
Description: SANGER: Inhibition of human WM-115 cell growth in a cell viability assay.

NCI-H716 = assay: cells; format: functional, cell-based; conditions: Homo sapiens
Description: SANGER: Inhibition of human NCI-H716 cell growth in a cell viability assay.

OVCAR-3 = assay: cells; format: functional, cell-based; conditions: Homo sapiens
Description: SANGER: Inhibition of human OVCAR-3 cell growth in a cell viability assay.

NCI-H187 = assay: cells; format: functional, cell-based; conditions: Homo sapiens
Description: SANGER: Inhibition of human NCI-H187 cell growth in a cell viability assay.

UMC-11 = assay: cells; format: functional, cell-based; conditions: Homo sapiens
Description: SANGER: Inhibition of human UMC-11 cell growth in a cell viability assay.

SW1463 = assay: cells; format: functional, cell-based; conditions: Homo sapiens
Description: SANGER: Inhibition of human SW1463 cell growth in a cell viability assay.

LN-405 = assay: cells; format: functional, cell-based; conditions: Homo sapiens
Description: SANGER: Inhibition of human LN-405 cell growth in a cell viability assay.

M14 = assay: cells; format: functional, cell-based; conditions: Homo sapiens
Description: SANGER: Inhibition of human M14 cell growth in a cell viability assay.

Kasumi 1 = assay: cells; format: functional, cell-based; conditions: Homo sapiens
Description: SANGER: Inhibition of human KASUMI-1 cell growth in a cell viability assay.

SF-295 = assay: cells; format: functional, cell-based; conditions: Homo sapiens
Description: SANGER: Inhibition of human SF295 cell growth in a cell viability assay.

MDA-MB-157 = assay: cells; format: functional, cell-based; conditions: Homo sapiens
Description: SANGER: Inhibition of human MDA-MB-157 cell growth in a cell viability assay.

CAL-148 = assay: cells; format: functional, cell-based; conditions: Homo sapiens
Description: SANGER: Inhibition of human CAL-148 cell growth in a cell viability assay.

CHL-1 = assay: cells; format: functional, cell-based; conditions: Homo sapiens
Description: SANGER: Inhibition of human CHL-1 cell growth in a cell viability assay.

Detroit 562 = assay: cells; format: functional, cell-based; conditions: Homo sapiens
Description: SANGER: Inhibition of human Detroit562 cell growth in a cell viability assay.

TCC-SUP = assay: cells; format: functional, cell-based; conditions: Homo sapiens
Description: SANGER: Inhibition of human TCCSUP cell growth in a cell viability assay.

NCI-H1792 = assay: cells; format: functional, cell-based; conditions: Homo sapiens
Description: SANGER: Inhibition of human NCI-H1792 cell growth in a cell viability assay.

NCI-H1623 = assay: cells; format: functional, cell-based; conditions: Homo sapiens
Description: SANGER: Inhibition of human NCI-H1623 cell growth in a cell viability assay.

CAL-72 = assay: cells; format: functional, cell-based; conditions: Homo sapiens
Description: SANGER: Inhibition of human CAL-72 cell growth in a cell viability assay.

DoTc2-4510 = assay: cells; format: functional, cell-based; conditions: Homo sapiens
BPH-1 = assay: cells; format: functional, cell-based; conditions: Homo sapiens
Description: SANGER: Inhibition of human BPH-1 cell growth in a cell viability assay.

ABC-1 = assay: cells; format: functional, cell-based; conditions: Homo sapiens
Description: SANGER: Inhibition of human ABC-1 cell growth in a cell viability assay.

CAL-39 = assay: cells; format: functional, cell-based; conditions: Homo sapiens
Description: SANGER: Inhibition of human CAL-39 cell growth in a cell viability assay.

T98G = assay: cells; format: functional, cell-based; conditions: Homo sapiens
Description: SANGER: Inhibition of human T98G cell growth in a cell viability assay.

RPMI-7951 = assay: cells; format: functional, cell-based; conditions: Homo sapiens
Description: SANGER: Inhibition of human RPMI-7951 cell growth in a cell viability assay.

NCI-H520 = assay: cells; format: functional, cell-based; conditions: Homo sapiens
Description: SANGER: Inhibition of human NCI-H520 cell growth in a cell viability assay.

RD = assay: cells; format: functional, cell-based; conditions: Homo sapiens
Description: SANGER: Inhibition of human RD cell growth in a cell viability assay.

SK-HEP1 = assay: cells; format: functional, cell-based, SK-HEP-1; conditions: Homo sapiens
Description: SANGER: Inhibition of human SK-HEP-1 cell growth in a cell viability assay.

HuP-T4 = assay: cells; format: functional, cell-based; conditions: Homo sapiens
Description: SANGER: Inhibition of human HuP-T4 cell growth in a cell viability assay.

SW48 = assay: cells; format: functional, cell-based; conditions: Homo sapiens
Description: SANGER: Inhibition of human SW48 cell growth in a cell viability assay.

RPMI-6666 = assay: cells; format: functional, cell-based; conditions: Homo sapiens
Description: SANGER: Inhibition of human RPMI-6666 cell growth in a cell viability assay.

PANC-08-13 = assay: cells; format: functional, cell-based; conditions: Homo sapiens
Description: SANGER: Inhibition of human PANC-08-13 cell growth in a cell viability assay.

NB7 = assay: cells; format: functional, cell-based; conditions: Homo sapiens
Description: SANGER: Inhibition of human NB7 cell growth in a cell viability assay.

## Fc1cc(-c2cc[nH]/c(=N/c3ccc(-n4cnc(N5CCOCC5)n4)cc3)n2)cc(N2CCOCC2)c1
HSC-3
  IC50: 713 nM
G-401
  IC50: 380 nM
NCI-H719
  IC50: 2240 nM
BFTC-905
  IC50: 141 nM
NCI-H64
  IC50: 862 nM
LCLC-103H cell line
  IC50: 135 nM
HuO9
  IC50: 638 nM
NB12
  IC50: 383 nM
EHEB
  IC50: 376 nM
M059J
  IC50: 926 nM
BC1 cell line
  IC50: 491 nM
BHT-101
  IC50: 667 nM
HCC1806
  IC50: 637 nM
BCPAP
  IC50: 932 nM
SCC-3
  IC50: 582 nM
GAMG
  IC50: 1340 nM
J82
  IC50: 800 nM
COLO-792
  IC50: > 5120 nM
HN
  IC50: 4240 nM
RPMI 8402
  IC50: 605 nM
TUR
  IC50: 363 nM
THP-1
  IC50: 1050 nM
GP5d
  IC50: 514 nM
SW626
  IC50: 1090 nM
RMG-I
  IC50: 1250 nM
NCI-H460
  IC50: 337 nM
LP-1
  IC50: 483 nM
DG-75
  IC50: 1290 nM
SK-LU-1
  IC50: 987 nM
EGI-1
  IC50: 686 nM
RL
  IC50: 1590 nM
A204
  IC50: 165 nM
SW-620
  IC50: 355 nM
CAMA-1
  IC50: > 5120 nM
WM-115
  IC50: > 5120 nM
NCI-H716
  IC50: 3920 nM
OVCAR-3
  IC50: 567 nM
NCI-H187
  IC50: 2790 nM
UMC-11
  IC50: 179 nM
SW1463
  IC50: 649 nM
LN-405
  IC50: 991 nM
M14
  IC50: 342 nM
Kasumi 1
  IC50: 340 nM
SF-295
  IC50: 555 nM
MDA-MB-157
  IC50: 457 nM
CAL-148
  IC50: 4940 nM
CHL-1
  IC50: 490 nM
Detroit 562
  IC50: 321 nM
TCC-SUP
  IC50: > 5120 nM
NCI-H1792
  IC50: 2490 nM
NCI-H1623
  IC50: 1300 nM
CAL-72
  IC50: > 5120 nM
DoTc2-4510
  IC50: 225 nM
BPH-1
  IC50: 1970 nM
ABC-1
  IC50: 889 nM
CAL-39
  IC50: 309 nM
T98G
  IC50: 567 nM
RPMI-7951
  IC50: 721 nM
NCI-H520
  IC50: 467 nM
RD
  IC50: 1300 nM
SK-HEP1
  IC50: 410 nM
HuP-T4
  IC50: 3260 nM
SW48
  IC50: 742 nM
RPMI-6666
  IC50: 296 nM
PANC-08-13
  IC50: 90 nM

## C[C@]1(c2nc3c(C(N)=O)cccc3[nH]2)CCCN1 [VELIPARIB]
HSC-3
  IC50: > 5000 nM
G-401
  IC50: > 5000 nM
BFTC-905
  IC50: > 5000 nM
LCLC-103H cell line
  IC50: > 5000 nM
HuO9
  IC50: > 5000 nM
NB12
  IC50: > 5000 nM
M059J
  IC50: > 5000 nM
BHT-101
  IC50: > 5000 nM
HCC1806
  IC50: > 5000 nM
BCPAP
  IC50: > 5000 nM
GAMG
  IC50: > 5000 nM
J82
  IC50: > 5000 nM
COLO-792
  IC50: > 5000 nM
HN
  IC50: > 5000 nM
GP5d
  IC50: > 5000 nM
SW626
  IC50: > 5000 nM
RMG-I
  IC50: > 5000 nM
NCI-H460
  IC50: > 5000 nM
SK-LU-1
  IC50: > 5000 nM
EGI-1
  IC50: > 5000 nM
A204
  IC50: > 5000 nM
SW-620
  IC50: > 5000 nM
CAMA-1
  IC50: > 5000 nM
WM-115
  IC50: > 5000 nM
OVCAR-3
  IC50: > 5000 nM
UMC-11
  IC50: > 5000 nM
SW1463
  IC50: > 5000 nM
LN-405
  IC50: > 5000 nM
NB7
  IC50: > 5000 nM
M14
  IC50: > 5000 nM
Kasumi 1
  IC50: > 5000 nM
SF-295
  IC50: > 5000 nM
MDA-MB-157
  IC50: > 5000 nM
CHL-1
  IC50: > 5000 nM
Detroit 562
  IC50: > 5000 nM
TCC-SUP
  IC50: > 5000 nM
NCI-H1792
  IC50: > 5000 nM
NCI-H1623
  IC50: > 5000 nM
CAL-72
  IC50: > 5000 nM
DoTc2-4510
  IC50: > 5000 nM
BPH-1
  IC50: > 5000 nM
ABC-1
  IC50: > 5000 nM
CAL-39
  IC50: > 5000 nM
T98G
  IC50: > 5000 nM
RPMI-7951
  IC50: > 5000 nM
NCI-H520
  IC50: > 5000 nM
RD
  IC50: > 5000 nM
SK-HEP1
  IC50: > 5000 nM
HuP-T4
  IC50: > 5000 nM
SW48
  IC50: > 5000 nM
PANC-08-13
  IC50: > 5000 nM

## CC[C@]1(O)C[C@@H]2CN(CCc3c([nH]c4ccccc34)[C@@](C(=O)OC)(c3cc4c(cc3OC)N(C)[C@H]3[C@@](O)(C(=O)OC)[C@H](OC(C)=O)[C@]5(CC)C=CCN6CC[C@]43[C@@H]65)C2)C1 [VINBLASTINE]
HSC-3
  IC50: 4.39 nM
G-401
  IC50: 8.67 nM
BFTC-905
  IC50: 3.77 nM
LCLC-103H cell line
  IC50: 1.5 nM
HuO9
  IC50: 12.6 nM
NB12
  IC50: 61.4 nM
M059J
  IC50: 15.1 nM
BHT-101
  IC50: 31.4 nM
HCC1806
  IC50: 0.63 nM
BCPAP
  IC50: 2.33 nM
GAMG
  IC50: 19.4 nM
J82
  IC50: 68.5 nM
COLO-792
  IC50: 25.6 nM
HN
  IC50: 4.15 nM
GP5d
  IC50: 4.67 nM
SW626
  IC50: 23.2 nM
RMG-I
  IC50: > 100 nM
NCI-H460
  IC50: 46.4 nM
SK-LU-1
  IC50: 18.7 nM
EGI-1
  IC50: 10.8 nM
A204
  IC50: 8.76 nM
SW-620
  IC50: 8.84 nM
CAMA-1
  IC50: 32 nM
WM-115
  IC50: 10.2 nM
OVCAR-3
  IC50: 46.9 nM
UMC-11
  IC50: 76.2 nM
SW1463
  IC50: 69.7 nM
LN-405
  IC50: 12.4 nM
NB7
  IC50: > 100 nM
M14
  IC50: 3.19 nM
Kasumi 1
  IC50: 8.06 nM
SF-295
  IC50: 36.3 nM
MDA-MB-157
  IC50: 9.06 nM
CHL-1
  IC50: 12 nM
Detroit 562
  IC50: 5.53 nM
TCC-SUP
  IC50: 23.6 nM
NCI-H1792
  IC50: 4.39 nM
NCI-H1623
  IC50: > 100 nM
CAL-72
  IC50: > 100 nM
DoTc2-4510
  IC50: 16.5 nM
BPH-1
  IC50: 3.26 nM
ABC-1
  IC50: 15.5 nM
CAL-39
  IC50: 5.11 nM
T98G
  IC50: 11.4 nM
RPMI-7951
  IC50: 1.66 nM
NCI-H520
  IC50: 30.1 nM
RD
  IC50: 4.17 nM
SK-HEP1
  IC50: 12.1 nM
HuP-T4
  IC50: 43.2 nM
SW48
  IC50: 6.94 nM
PANC-08-13
  IC50: 61.5 nM
